Reference: a melting point compilation (Tetko et al.; mined from patent text by program, amines drawn as free bases though some values may be those of a salt)

`C=C(Br)Cc1c(O)ccc2c(C)cc(=O)oc12` gave a melting point of 201 to 202 °C.
Work on `Cc1ccc2c(c1)OC(C(=O)O)Oc1ccccc1C2` (stereo not given) yielded a melting point of 149 to 152 °C.
Work on `CN1C(=O)[C@H](NC(=O)C(c2ccccc2)c2ccccc2)N=C(c2ccccc2)c2ccccc21` yielded a melting point of 200 to 201 °C.
`Cc1ccc(C)n1-c1cc(F)cc(F)c1` showed a melting point of 55 to 56 °C.
With `CCC1(CC)C(=O)ON(C(=O)c2ccccc2)C1=O` the melting point was 76 to 79 °C.
With `Cn1c(C(F)(F)F)cc(=O)n(-c2ncc(Cl)cc2F)c1=O` the melting point was 133 to 134 °C.
Work on `Brc1cc(Br)c(COCc2cc(Br)c(Br)cc2Br)cc1Br` yielded a melting point of 162 to 164 °C.
For `CCC(CCC(=C(C#N)C(N)=O)c1cc(O)c(O)c(O)c1)NC(=O)C(C#N)=Cc1cc(O)c(O)c(O)c1` (stereo not given), the melting point was over 300 °C.
For `Cc1cc(C)nc(NC(=O)NS(=O)(=O)c2cccc3c2CCCC3)n1`, the melting point was 152 to 155 °C.
`CN(C)Cc1c(Cl)nc(-c2ccccc2)c2ccccc12` gave a melting point of 75 to 77 °C.
With `COCCNC(=O)c1cccc(-c2cccc3cc(C(O)c4cccc(C(F)(F)F)c4)sc23)c1` (stereo not given) the melting point was 126 to 127 °C.
Compound `CCCc1ccc(NC(=O)c2cccnc2NCc2ccc(=O)[nH]c2)cc1C(F)(F)F` has a melting point of 220 to 224 °C.
In the case of `COc1ccc(N2CCN(n3ccnc3)CC2)cc1`, the melting point was 159 °C.
Work on `N#CC(N)COc1ccccc1` (stereo not given) yielded a melting point of 65 °C.
`CC=NN(C(=O)c1ccccc1)c1ccc(OC)c(F)c1` gave a melting point of 110 to 112 °C.
For `O=C(/C=C/c1ccc(N2CCCCC2)cc1)CC(=O)/C=C/c1ccc2cc[nH]c2c1`, the melting point was 91 to 96 °C.
Work on `CC(C)(C)C(=O)OCOC(=O)C(C)(C)n1nc2ccc(NCCCN3CCC(OC(c4ccccc4)c4ccccc4)CC3)nn2c1=O` yielded a melting point of 162 °C.
In the case of `Cn1ncc(C(=O)N[C@H]2CCOC2)c1C(=O)Nc1ccn2nc(-c3ccccc3)nc2c1`, the melting point was over 250 °C.
For `CCC1CC(=O)N(Cc2cccc(NC(C)=O)c2)N=C1c1ccc(OC)c(OC2CCCC2)c1` (stereo not given), the melting point was 70 °C.
With `O=C(O)CCCOc1ccc(Nc2ccccc2)cc1` the melting point was 110 to 111 °C.
For `Cc1cc(-c2ccccc2)nc(N2CCN(c3ccc(O)cc3)CC2)c1C#N`, the melting point was 207 °C.
With `COc1cc(OC)c([C@@H]2CCN(C)C[C@H]2O)c(OC)c1` (relative stereo) the melting point was 96 to 97 °C.
Work on `N#Cc1cc(C(=O)NNC(=O)c2occc2-c2ccc(Oc3ccccc3)cc2)ccc1O` yielded a melting point of 199 to 200 °C.
Compound `COc1cccc(CNC(=O)c2nc3cccc(O)c3c(=O)[nH]2)c1` has a melting point of 187 to 189 °C.
`O=C(O)C(=NO)C(c1ccc(OCc2ccc3ccccc3n2)cc1)c1ccc(OCc2ccc3ccccc3n2)cc1` gave a melting point of 183 to 185 °C.
`CC(=O)NCC=C1CCc2ccc3nn(C)cc3c21` gave a melting point of 200 to 202 °C.
Compound `CCOC(=O)C1(C(=O)Nc2ccc(Br)cc2C)CC1` has a melting point of 89.5 to 90 °C.
`COc1ccc(CNc2nc(CCCC(=O)O)nc3[nH]c4ccccc4c23)cc1Cl` gave a melting point of 143 °C.
Work on `CN1C(=S)C(C)(C)N=C1SCc1ccccc1N(C)C` yielded a melting point of 76 to 78 °C.
`CNS(=O)(=O)c1cn(C)c2cc(C)ccc2c1=O` showed a melting point of 237 to 240 °C.
Compound `O=[N+]([O-])c1ccc(C(O)c2ccccn2)c(Cl)c1` (stereo not given) has a melting point of 124 to 127 °C.
For `O=[N+]([O-])c1ccc(Cl)c2c(Cl)ccnc12`, the melting point was 116 to 118 °C.
With `O=C1c2ccccc2OCN1CCCCCO[N+](=O)[O-]` the melting point was 39 to 41 °C.
Compound `Cc1cn(-c2cc(NC(=O)OC(C)(C)C)cc(C(F)(F)F)c2)cn1` has a melting point of 186 to 188 °C.
Work on `CCOP(=O)(/C=C/c1cn(CC)nc1OCc1ccc(OCc2nc(-c3ccco3)oc2C)c(OC)c1)OCC` yielded a melting point of 82 to 84 °C.
`CC(=O)OC1CSC(Oc2ccc(-c3ccc(C#N)nc3)nc2)C(OC(C)=O)C1OC(C)=O` (stereo not given) showed a melting point of 247 °C.
Compound `Cc1ccc(Nc2cccc3c2OC(COS(=O)(=O)c2ccc(C)cc2)C3)cc1` (stereo not given) has a melting point of 118 to 120 °C.
With `OC(CCN1CC=C(c2ccc(Cl)cc2)CC1)c1ccc(Cc2ccccn2)cc1` (stereo not given) the melting point was 129 to 131 °C.
Work on `CC(C)(C)NC(=O)[C@@H]1CCCC[C@H]1C[C@@H](O)[C@H](Cc1ccccc1)NC(=O)[C@H](CC(N)=O)NC(=O)c1cc(Cl)cc(Cl)c1` yielded a melting point of 220 to 226 °C.
With `FC(F)(F)c1ccc(-c2cc(Oc3cccc4cnccc34)nnc2Oc2cccc3cnccc23)cc1` the melting point was 197 to 199 °C.
`OC1CSC(Oc2cc(-c3cncnc3)cc(F)c2F)C(O)C1O` (stereo not given) showed a melting point of 191 °C.
With `CNN1c2c(cc(Oc3ccc(F)cc3F)c(=O)n2NC)C=NC1S(=O)Cc1ccccc1` (stereo not given) the melting point was 80.5 to 89.9 °C.
With `C[C@@H]1CN(C(=O)[C@@](C)(O)C(F)(F)F)[C@@H](C)CN1S(=O)(=O)c1ccc(C#N)cc1` the melting point was 186 to 187 °C.
Work on `CCCCc1nc2c(N)nc3ccccc3c2n1CCCCNC(=O)Nc1ccccc1` yielded a melting point of 185 to 187 °C.
Compound `CN1OCC/C(=C\c2nc(C(C)(C)C)c(O)c(C(C)(C)C)n2)C1=O` has a melting point of 180 to 181 °C.
`COc1cccc(C23CCCC(C2)N(C)C3=O)c1` (stereo not given) showed a melting point of 68 to 70 °C.
With `CS(=O)(=O)c1ccc(-c2cnn(CC(F)(F)F)c(=O)c2-c2ccc(F)c(Cl)c2)cc1` the melting point was 165 to 166 °C.
With `O=c1ccc(S(=O)(=O)c2oc3ccccc3c2O)n[nH]1` the melting point was 186 to 189 °C.
In the case of `c1ccc(CSc2cc(SCc3ccccc3)c3ccc4c(SCc5ccccc5)cc(SCc5ccccc5)c5ccc2c3c54)cc1`, the melting point was 178 to 180 °C.
`CCCCc1nc(=O)c2cc(C#C[Si](C)(C)C)c(F)cc2[nH]1` showed a melting point of 192 °C.
For `COc1ccc2c(c1)CC(=O)N2`, the melting point was 148 to 150 °C.
`O=C(C=Cc1ccc(Cl)cc1)C1CC1` gave a melting point of 61 °C.
For `COC(CCNC(=O)C(F)(F)F)(c1ccccc1)c1ccccc1`, the melting point was 108 to 110 °C.
Work on `O=c1ccn(C2C=CC(CO)O2)c(=O)[nH]1` (stereo not given) yielded a melting point of 150 to 151 °C.
With `CCc1ccc(OCC2CO2)cc1` (stereo not given) the melting point was 73.5 to 74.2 °C.
Compound `CCN(CC)c1ccc2c(c1)O/C(=C1/Oc3cc(N(CC)CC)ccc3C1=O)C2=O` has a melting point of 292 °C.
`CCCC(=O)OCCOc1ccc2oc3cc(-c4nnn[nH]4)ccc3c(=O)c2c1` showed a melting point of 207 to 209 °C.
In the case of `CN(C)CC(O)COc1ccccc1CCCCc1ccccc1C(N)=O` (stereo not given), the melting point was 149 to 151 °C.
For `Cc1ncc(CN2CCc3cc(-c4cc(Cl)cc(Cl)c4)ccc3C2)c(N)n1`, the melting point was 205 to 211 °C.
`Nc1ccc(S(=O)(=O)NCCc2ccccc2)cc1` gave a melting point of 114 °C.
In the case of `NC(=S)NCCSCc1c[nH]cn1`, the melting point was 135 to 137 °C.
`CCCCC1=NC2(CCCC2)C(=O)N1Cc1ccc(-c2ccccc2S(=O)(=O)Nc2noc(C)c2C)c(CN2CCCC2=O)c1` showed a melting point of 97 to 103 °C.
`COC12CC(CN3CCC(c4c[nH]c5ccccc45)CC3)CN(C)C1Cc1c(Br)[nH]c3cccc2c13` (stereo not given) showed a melting point of 160 to 170 °C.
`Cc1[nH]c2ccccc2c1CCCN1CCC(C(=O)c2ccc(F)cc2)CC1` showed a melting point of 135 to 137 °C.
With `O=C1CS(=O)(=O)CN1c1cccc(C(F)(F)F)c1` the melting point was 115 to 117 °C.
`NC(=O)c1[nH]c2ccc(Cl)cc2c1S(=O)(=O)c1cc(Cl)cc(Cl)c1` gave a melting point of 258 to 260 °C.
Work on `O=C1Nc2cccc(Cl)c2C12COc1cc3c(cc12)OCO3` (stereo not given) yielded a melting point of 175 to 185 °C.
Work on `COc1c(Cl)cc2c(=O)[nH]c(=O)[nH]c2c1OC` yielded a melting point of 272 to 273 °C.
Work on `C#CC(Cc1ccc(OC)c(OC2CCCC2)c1)C(=O)O` (stereo not given) yielded a melting point of 109 to 110 °C.
Compound `O=C(Nc1cccc(S(=O)(=O)N2CCCC2)c1)c1cnn2c(C(F)(F)F)cc(-c3ccc(Cl)cc3)nc12` has a melting point of 252 °C.
For `CCOc1nccc(C(=O)OC)c1N`, the melting point was 59 to 60.5 °C.
`CC1=NC(NC(=O)Nc2cccc(C)c2)C(=O)N(CC(=O)C2CCCC2)c2c(C)cccc21` (stereo not given) gave a melting point of 150 to 156 °C.
In the case of `CNC(=O)Oc1ccccc1C(=O)NC(Oc1ccccc1)C(Cl)(Cl)Cl` (stereo not given), the melting point was 138 to 141 °C.
`CCOC(=O)c1c(S(=O)c2ccccc2)n(C2CC2)c2c(F)c(F)c(F)cc2c1=O` (stereo not given) gave a melting point of 190 to 191 °C.
`Cc1c(Sc2ccc(Cl)cc2)nn(-c2ccc(Oc3ccccc3)cc2)c(=O)c1C#N` gave a melting point of 164 °C.
Compound `CCOC(=O)c1c(C(F)(F)F)nc(C(F)(F)Cl)c(C(=O)OC)c1NC(C)C` has a melting point of 43.5 to 45 °C.
In the case of `COc1cccc(C(CC(N)=O)CC(N)=O)c1`, the melting point was 161 to 162 °C.
With `Cc1cc2c(cc1F)N(C(=O)Nc1cccnc1)CC2` the melting point was 203 to 205 °C.
Work on `CSc1nc(N)nc2c1ncn2COCCO` yielded a melting point of 188 to 191 °C.
Work on `CCNC(=C[N+](=O)[O-])NCCSCc1[nH]cnc1C` yielded a melting point of 171 to 172 °C.
Work on `CC(C)(C)OC(=O)COc1cc(NC(=O)OC(C)(C)C)c(NC(=O)CC(=O)c2cccc(-n3ccnc3)c2)cc1-c1ccc(F)cc1` yielded a melting point of 82 to 85 °C.
Work on `CNc1nc(-c2ccc3c(c2)CCC3)c(-c2cccnc2)s1` yielded a melting point of 169 to 170 °C.
`CCOC(=O)c1cc(N)c(N)nc1C(=O)OCC` showed a melting point of 143 to 146 °C.
Compound `Cc1cc(-c2nc[nH]n2)ccc1N` has a melting point of 183 to 186 °C.
With `CNc1c2c(nc3ccccc13)CCCC2O` (stereo not given) the melting point was 160 to 161 °C.
Compound `CCOC(=O)C1=C(C)NC(C)=C(C(=O)OC)C1c1ccccc1Cl` (stereo not given) has a melting point of 125 to 127 °C.
For `O=S1(=O)N=C(O)c2ccc(-c3ccccn3)cc21`, the melting point was 305 to 311 °C.
With `COc1cc(OC)nc(CCl)n1` the melting point was 40 to 42 °C.
With `CS(=O)(=O)c1ccc(-c2cc(F)c(F)cc2-c2ccc3c(c2)OCO3)cc1` the melting point was 110 to 111 °C.
For `COCCN(C)c1cc2ncc(C#N)c(C)c2cc1OC`, the melting point was 90 to 96 °C.
In the case of `CCOC(CN1CCN(c2cccc(-n3cnc4cc(C(C)=O)ccc43)c2)CC1)=NO`, the melting point was 154 to 156 °C.
`O=C1c2cccc3cccc(c23)C(=O)N1CCCCCCBr` gave a melting point of 95 to 96 °C.
In the case of `Cn1nc(C(F)(F)F)c(C(=O)O)c1N`, the melting point was 216 to 218 °C.
For `Cc1ccsc1C(=O)c1cccn1N1C(=O)c2ccccc2C1=O`, the melting point was 221 to 223 °C.
`O=C1Nc2ccc(S(=O)(=O)N3CCCC3)cc2C1=O` gave a melting point of 200 to 201 °C.
In the case of `O=[N+]([O-])c1ccccc1SNc1nc(OCc2ccc(F)cc2)ncc1F`, the melting point was 184 °C.
In the case of `CC1(C)CCC(C)(C)c2cc(NC(=O)c3ccc(C(=O)O)nc3)ccc21`, the melting point was 200 to 201 °C.
`CC1C(N(C)C)CCN2c3ccccc3Cc3ccccc3C12` (stereo not given) showed a melting point of 174 to 176 °C.
In the case of `COc1ccc(Cl)cc1C(=O)NCCc1ccc(-c2ccc(F)cc2)c(S(N)(=O)=O)c1`, the melting point was 195 °C.
With `CCCCc1c(C(C)C)nc(C(C)C)c(CO)c1-c1ccccc1` the melting point was 83 to 84 °C.
